Source: PubChem BioAssay AID330 (DTP/NCI, 2004)
“And” between values parts separate entries of the source, which are not always exact repeats. Identical values can stand only once. Inconclusive results and toxic doses are left out. The calls were made as follows: active = survival T/C of 150% or more; inactive = T/C below 125% in these data.

Test system: P388 leukemia ip, CD2F1 mice, survival T/C
Assay: NCI In Vivo Anticancer Drug Screen. Data for tumor model P388 Leukemia (intraperitoneal) in CD2F1 (CDF1) mice
Details: endpoint: median survival time, higher = longer survival
Procedure, shortened: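 Mice carrying the transplanted tumor received test compound or vehicle. Survival was recorded in each group, and the value is the treated-group measurement divided by that of the vehicle-treated control group.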

[1] = dose: 50.0 mg/kg/injection, schedule: Q01DX005 (ip), vehicle: Klucel (hydroxypropylcellulose) (HPC)
[2] = dose: 100.0 mg/kg/injection, schedule: Q01DX005 (ip), vehicle: Klucel (hydroxypropylcellulose) (HPC)
[3] = dose: 200.0 mg/kg/injection, schedule: Q01DX005 (ip), vehicle: Klucel (hydroxypropylcellulose) (HPC)
[4] = dose: 12.5 mg/kg/injection, schedule: Q01DX009 (ip), vehicle: saline
[5] = dose: 25.0 mg/kg/injection, schedule: Q01DX009 (ip), vehicle: saline
[6] = dose: 50.0 mg/kg/injection, schedule: Q01DX009 (ip), vehicle: saline
[7] = dose: 25.0 mg/kg/injection, schedule: Q01DX009 (ip), vehicle: Klucel (hydroxypropylcellulose) (HPC)
[8] = dose: 100.0 mg/kg/injection, schedule: Q01DX009 (ip), vehicle: saline
[9] = dose: 50.0 mg/kg/injection, schedule: Q01DX009 (ip), vehicle: saline with Tween-80
[10] = dose: 100.0 mg/kg/injection, schedule: Q01DX009 (ip), vehicle: saline with Tween-80
[11] = dose: 200.0 mg/kg/injection, schedule: Q01DX009 (ip), vehicle: saline with Tween-80
[12] = dose: 50.0 mg/kg/injection, schedule: Q01DX009 (ip), vehicle: Klucel (hydroxypropylcellulose) (HPC)
[13] = dose: 50.0 mg/kg/injection, schedule: Q01DX005 (ip), vehicle: saline with Tween-80
[14] = dose: 100.0 mg/kg/injection, schedule: Q01DX005 (ip), vehicle: saline with Tween-80
[15] = dose: 200.0 mg/kg/injection, schedule: Q01DX005 (ip), vehicle: saline with Tween-80

Measured: T/C

CNCC1c2ccccc2CSc2c(OC)cccc21 (stereo unspecified)
inactive: dose: 6.25 mg/kg/injection, schedule: Q01DX005 (ip), vehicle: Klucel (hydroxypropylcellulose) (HPC) 101 % of control | dose: 12.5 mg/kg/injection, schedule: Q01DX005 (ip), vehicle: Klucel (hydroxypropylcellulose) (HPC) 98 % of control | dose: 25.0 mg/kg/injection, schedule: Q01DX005 (ip), vehicle: Klucel (hydroxypropylcellulose) (HPC) 98 % of control

CCCCN(CCCC)CCNc1ccc(C)c2sc3c(Cl)cccc3c(=O)c12
inactive: [1] 99 % of control | [2] 108 % of control | [3] 105 % of control

CCCCNP(=O)(N1CC1C)N1CC1C (stereo unspecified)
inactive: dose: 8.25 mg/kg/injection, schedule: Q01DX009 (ip), vehicle: saline 112 % of control | [4] 120 % of control | [5] 109 % of control | [6] 86 % of control

CSC(=S)SC(SC)S(C)(=O)=O (stereo unspecified)
inactive: dose: 3.12 mg/kg/injection, schedule: Q01DX009 (ip), vehicle: Klucel (hydroxypropylcellulose) (HPC) 103 % of control | dose: 6.25 mg/kg/injection, schedule: Q01DX009 (ip), vehicle: Klucel (hydroxypropylcellulose) (HPC) 112 % of control | dose: 12.5 mg/kg/injection, schedule: Q01DX009 (ip), vehicle: Klucel (hydroxypropylcellulose) (HPC) 110 % of control and 117 % of control | [7] 93 % of control

O=[N+]([O-])c1ccc(S(=O)(=O)Nc2ccc(-c3ccccc3)cc2)cc1
inactive: dose: 100.0 mg/kg/injection, schedule: Q01DX009 (ip), vehicle: other 105 % of control | dose: 200.0 mg/kg/injection, schedule: Q01DX009 (ip), vehicle: other 100 % of control | dose: 400.0 mg/kg/injection, schedule: Q01DX009 (ip), vehicle: other 100 % of control

CCOC(=O)C(Cc1ccc(N)cc1)N1C(=O)c2ccccc2C1=O (stereo unspecified)
inactive: dose: 50.0 mg/kg/injection, schedule: Q01DX009 (ip), vehicle: distilled water + Tween-80 + alcohol 100 % of control | dose: 100.0 mg/kg/injection, schedule: Q01DX009 (ip), vehicle: distilled water + Tween-80 + alcohol 95 % of control | dose: 200.0 mg/kg/injection, schedule: Q01DX009 (ip), vehicle: distilled water + Tween-80 + alcohol 91 % of control

COc1ccc(CCN2C(=O)C(=O)N(c3ccc([N+](=O)[O-])cc3)C2=O)cc1OC
inactive: [6] 91 % of control | [8] 94 % of control | dose: 200.0 mg/kg/injection, schedule: Q01DX009 (ip), vehicle: saline 94 % of control

Cc1ccnc(NC(N)=O)n1
inactive: [9] 103 % of control | [10] 103 % of control | [11] 101 % of control

COC(=O)c1ccc(SCC/C(CN2C(=O)c3ccccc3C2=O)=N\O)cc1
inactive: [12] 95 % of control | dose: 100.0 mg/kg/injection, schedule: Q01DX009 (ip), vehicle: Klucel (hydroxypropylcellulose) (HPC) 99 % of control | dose: 200.0 mg/kg/injection, schedule: Q01DX009 (ip), vehicle: Klucel (hydroxypropylcellulose) (HPC) 88 % of control

O=Nc1ccc(NO)cc1
inactive: dose: 25.0 mg/kg/injection, schedule: Q04DX003 (ip), vehicle: Klucel (hydroxypropylcellulose) (HPC) 110 % of control | dose: 50.0 mg/kg/injection, schedule: Q04DX003 (ip), vehicle: Klucel (hydroxypropylcellulose) (HPC) 108 % of control | dose: 100.0 mg/kg/injection, schedule: Q04DX003 (ip), vehicle: Klucel (hydroxypropylcellulose) (HPC) 103 % of control | dose: 200.0 mg/kg/injection, schedule: Q04DX003 (ip), vehicle: Klucel (hydroxypropylcellulose) (HPC) 110 % of control | dose: 400.0 mg/kg/injection, schedule: Q04DX003 (ip), vehicle: Klucel (hydroxypropylcellulose) (HPC) 88 % of control

C/C(=N\N=C(N)N)c1ccccc1
inactive: dose: 6.25 mg/kg/injection, schedule: Q01DX009 (ip), vehicle: saline 110 % of control | [4] 101 % of control

COc1cccc(C2SCC(=O)N2c2nncs2)c1 (stereo unspecified)
inactive: dose: 60.0 mg/kg/injection, schedule: Q01DX005 (ip), vehicle: saline with Tween-80 100 % of control | dose: 120.0 mg/kg/injection, schedule: Q01DX005 (ip), vehicle: saline with Tween-80 97 % of control | dose: 240.0 mg/kg/injection, schedule: Q01DX005 (ip), vehicle: saline with Tween-80 104 % of control

CCC(O)CC1OC2(CCC1C)CC1OC(=O)/C=C\C(C)(O)C(O)C(C)C(O)C(OC3CC(OC)C(O)C(C)O3)C(O)C(C)(O)CCC/C=C/C3CC(C)COC3(O)CC(O2)C1C (stereo unspecified)
inactive: dose: 1.0 mg/kg/injection, schedule: Q01DX005 (ip), vehicle: saline + alcohol 100 % of control | dose: 2.0 mg/kg/injection, schedule: Q01DX005 (ip), vehicle: saline + alcohol 104 % of control

O=C1N=c2ccc(Br)cc2=C1c1sc(=O)n(Cc2nc3ccccc3[nH]2)c1O
inactive: dose: 100.0 mg/kg/injection, schedule: Q01DX001 (ip), vehicle: Klucel (hydroxypropylcellulose) (HPC) 95 % of control | dose: 200.0 mg/kg/injection, schedule: Q01DX001 (ip), vehicle: Klucel (hydroxypropylcellulose) (HPC) 93 % of control | dose: 400.0 mg/kg/injection, schedule: Q01DX001 (ip), vehicle: Klucel (hydroxypropylcellulose) (HPC) 90 % of control

CCCCCCNC(=O)CNC(=O)C=[N+]=[N-]
inactive: [9] 101 % of control | [10] 101 % of control | [11] 97 % of control

N#CCC(=O)N/N=C(/CC1(O)C(=O)Nc2c(Cl)cc(Cl)cc21)c1ccccc1 (stereo unspecified)
inactive: [13] 102 % of control | [14] 100 % of control | [15] 104 % of control

CC(C)(C)c1cc2c(O)c(c1)Cc1cc(C(C)(C)C)cc(c1O)Cc1cc(C(C)(C)C)cc(c1O)Cc1cc(C(C)(C)C)cc(c1O)Cc1cc(C(C)(C)C)cc(c1O)Cc1cc(C(C)(C)C)cc(c1O)C2
inactive: [1] 99 % of control | [2] 92 % of control | [3] 92 % of control

ClC1=C(Cl)[C@@]2(Cl)[C@H]3[C@H]4C[C@H]([C@@H]5O[C@H]45)[C@H]3[C@@]1(Cl)C2(Cl)Cl
inactive: dose: 12.5 mg/kg/injection, schedule: Q04DX003 (ip), vehicle: Klucel (hydroxypropylcellulose) (HPC) 95 % of control

O=C1C=CC(=O)C2=C1C1CCCC1C1CCCC21 (stereo unspecified)
inactive: [5] 123 % of control | [6] 105 % of control | [8] 113 % of control

CN(CC[n+]1cccc(C(N)=O)c1)N=O
inactive: dose: 100.0 mg/kg/injection, schedule: Q01DX001 (ip), vehicle: saline 108 % of control | dose: 200.0 mg/kg/injection, schedule: Q01DX001 (ip), vehicle: saline 100 % of control | dose: 400.0 mg/kg/injection, schedule: Q01DX001 (ip), vehicle: saline 107 % of control

CCC(=O)c1ccc(OC(C)=O)cc1
inactive: dose: 50.0 mg/kg/injection, schedule: Q04DX003 (ip), vehicle: saline with Tween-80 103 % of control | dose: 100.0 mg/kg/injection, schedule: Q04DX003 (ip), vehicle: saline with Tween-80 103 % of control | dose: 200.0 mg/kg/injection, schedule: Q04DX003 (ip), vehicle: saline with Tween-80 96 % of control

O=C1c2cc(Cl)ccc2-c2c(NC(=O)C(Cl)Cl)cc(Cl)cc21
inactive: dose: 12.5 mg/kg/injection, schedule: Q01DX009 (ip), vehicle: saline with Tween-80 95 % of control | [7] 100 % of control | dose: 25.0 mg/kg/injection, schedule: Q01DX009 (ip), vehicle: saline with Tween-80 95 % of control | [12] 88 % of control | [9] 100 % of control

CC(O)CN(Cc1c(O)ccc2ccccc12)CC(C)O (stereo unspecified)
inactive: [13] 108 % of control | [14] 110 % of control | [15] 99 % of control
